According to ChEMBL document CHEMBL5236635, “Structure-Based Drug Design and Synthesis of Novel N-Aryl-2,4-bithiazole-2-amine CYP1B1-Selective Inhibitors in Overcoming Taxol Resistance in A549 Cells” (J Med Chem, 2022):

What was measured:
CYP1B1 = target: T1, CYP1B1 (Homo sapiens, UniProt Q16678); experiment: Inhibition of recombinant human CYP1B1 assessed as inhibition ratio at 100 nM using 7-ethyl-0-resorufin as substrate incubated for 30 mins in presence of NADPH by EROD assay relative to control; details: recombinant human CYP1B1, probe 7-ethyl-0-resorufin
T1 sequence (Q16678 whole entry): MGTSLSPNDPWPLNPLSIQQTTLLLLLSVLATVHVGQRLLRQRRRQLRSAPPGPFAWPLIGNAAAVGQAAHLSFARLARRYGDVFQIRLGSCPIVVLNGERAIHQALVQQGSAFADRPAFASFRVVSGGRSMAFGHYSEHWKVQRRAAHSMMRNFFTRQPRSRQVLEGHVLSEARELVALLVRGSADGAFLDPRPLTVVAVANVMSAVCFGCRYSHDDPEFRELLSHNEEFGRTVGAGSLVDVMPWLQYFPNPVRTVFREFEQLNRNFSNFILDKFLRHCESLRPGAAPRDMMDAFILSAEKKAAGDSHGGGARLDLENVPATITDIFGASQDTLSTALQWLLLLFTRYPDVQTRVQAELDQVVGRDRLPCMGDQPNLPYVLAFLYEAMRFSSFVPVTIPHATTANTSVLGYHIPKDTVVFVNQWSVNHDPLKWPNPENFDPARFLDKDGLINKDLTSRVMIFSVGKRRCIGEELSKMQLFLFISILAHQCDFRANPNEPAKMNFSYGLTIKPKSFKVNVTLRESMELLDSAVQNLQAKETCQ

Cytochrome P450 1B1 = target: T2, Cytochrome P450 1B1 (Homo sapiens, UniProt Q16678); experiment: Inhibition of recombinant human CYP1B1 using 7-ethyl-0-resorufin as substrate incubated for 30 mins in presence of NADPH by EROD assay
T2 sequence (Q16678 whole entry): T1 sequence (Q16678 whole entry)

Cytochrome P450 1A1 = target: T3, Cytochrome P450 1A1 (Homo sapiens, UniProt P04798); experiment: Inhibition of recombinant human CYP1A1 using 7-ethyl-0-resorufin as substrate incubated for 30 mins in presence of NADPH by EROD assay
T3 sequence (P04798 whole entry): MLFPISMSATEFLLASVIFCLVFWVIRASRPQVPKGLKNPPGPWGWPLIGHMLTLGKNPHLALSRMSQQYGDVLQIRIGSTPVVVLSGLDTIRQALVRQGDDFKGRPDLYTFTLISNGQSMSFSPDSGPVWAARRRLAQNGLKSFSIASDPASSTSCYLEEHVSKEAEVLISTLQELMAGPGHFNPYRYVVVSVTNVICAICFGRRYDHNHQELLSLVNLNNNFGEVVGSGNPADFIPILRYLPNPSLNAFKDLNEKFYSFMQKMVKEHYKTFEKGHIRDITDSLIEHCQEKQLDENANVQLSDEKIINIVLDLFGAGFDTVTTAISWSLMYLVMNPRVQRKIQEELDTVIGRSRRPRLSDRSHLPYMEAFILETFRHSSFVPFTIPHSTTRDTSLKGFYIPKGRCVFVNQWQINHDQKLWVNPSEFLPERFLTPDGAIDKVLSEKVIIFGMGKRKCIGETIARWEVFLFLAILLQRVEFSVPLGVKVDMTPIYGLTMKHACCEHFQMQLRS

Cytochrome P450 1A2 = target: T4, Cytochrome P450 1A2 (Homo sapiens, UniProt P05177); experiment: Inhibition of recombinant human CYP1A2 using 7-ethyl-0-resorufin as substrate incubated for 30 mins in presence of NADPH by EROD assay
T4 sequence (P05177 whole entry): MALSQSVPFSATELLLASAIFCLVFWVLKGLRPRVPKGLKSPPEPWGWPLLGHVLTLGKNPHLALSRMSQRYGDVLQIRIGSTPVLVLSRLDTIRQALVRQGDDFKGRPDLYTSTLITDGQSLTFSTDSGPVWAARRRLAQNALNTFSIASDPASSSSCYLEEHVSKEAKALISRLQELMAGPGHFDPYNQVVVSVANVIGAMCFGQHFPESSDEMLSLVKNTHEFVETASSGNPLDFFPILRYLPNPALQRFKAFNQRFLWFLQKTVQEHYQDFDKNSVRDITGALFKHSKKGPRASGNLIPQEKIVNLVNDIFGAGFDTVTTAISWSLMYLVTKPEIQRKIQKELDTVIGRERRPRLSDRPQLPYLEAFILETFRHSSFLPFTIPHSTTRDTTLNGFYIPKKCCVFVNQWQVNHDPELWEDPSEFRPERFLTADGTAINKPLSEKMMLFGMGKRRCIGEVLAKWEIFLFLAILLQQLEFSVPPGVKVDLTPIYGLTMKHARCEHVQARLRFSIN

CYP1A1 versus CYP1B1 = experiment: Selectivity index, ratio of IC50 for inhibition of recombinant human CYP1A1 to IC50 for inhibition of recombinant human CYP1B1; details: recombinant human CYP1A1 and recombinant human CYP1B1
CYP1A2 versus CYP1B1 = experiment: Selectivity index, ratio of IC50 for inhibition of recombinant human CYP1A2 to IC50 for inhibition of recombinant human CYP1B1; details: recombinant human CYP1A2 and recombinant human CYP1B1

| SMILES | inhibition at 0.5 h, 0.1 µM (CYP1B1) | IC50 (Cytochrome P450 1B1) | IC50 (Cytochrome P450 1A1) | IC50 (Cytochrome P450 1A2) | selectivity ratio (CYP1A1 versus CYP1B1) | selectivity ratio (CYP1A2 versus CYP1B1) |
| --- | --- | --- | --- | --- | --- | --- |
| Oc1cccc(Nc2nc(-c3nccs3)cs2)c1 | 72.8% | – | – | – | – | – |
| c1ccc(-c2csc(-c3csc(Nc4ccc(N5CCOCC5)cc4)n3)n2)cc1 | – | 11.6 nM | 334 nM | 2860 nM | 28.9 | 247 |
| CCc1sc(-c2csc(Nc3cc(OC)cc(OC)c3)n2)nc1-c1ccccc1 | – | 10.8 nM | 611 nM | 5250 nM | 56.3 | 484 |
| COc1cc(Nc2nc(-c3nc(-c4ccc(F)cc4)cs3)cs2)cc(OC)c1 | – | 65.1 nM | > 10000 nM | – | – | – |
| c1cc(-c2csc(-c3csc(Nc4ccc(N5CCOCC5)cc4)n3)n2)ccn1 | – | 153 nM | 4460 nM | 312 nM | 29.2 | 2.04 |
| COc1ccc(Nc2nc(-c3nccs3)cs2)cc1 | 78% | – | – | – | – | – |
| c1cnc2ccc(Nc3nc(-c4nccs4)cs3)cc2c1 | 93.4% | – | – | – | – | – |
| Oc1ccc(Nc2nc(-c3nccs3)cs2)cc1 | 73.9% | – | – | – | – | – |
| Nc1cccc(Nc2nc(-c3nccs3)cs2)c1 | 57.9% | – | – | – | – | – |
| O=[N+]([O-])c1ccc(Nc2nc(-c3nccs3)cs2)cc1 | 41.3% | – | – | – | – | – |
| c1cc(Nc2nc(-c3nccs3)cs2)cc(-n2ccnc2)c1 | 92.4% | – | – | – | – | – |
| Clc1cc(Cl)cc(Nc2nc(-c3nc(-c4cccnc4)cs3)cs2)c1 | – | 33.1 nM | 387 nM | 227 nM | 11.7 | 6.85 |
| C#CCOc1ccccc1-c1csc(-c2csc(Nc3cc(OC)cc(OC)c3)n2)n1 | – | 77.6 nM | 271 nM | 916 nM | 3.49 | 11.8 |
| Fc1cccc(Nc2nc(-c3nc(-c4ccccc4)cs3)cs2)c1 | – | 6.49 nM | 1270 nM | – | – | – |
| O=[N+]([O-])c1cccc(Nc2nc(-c3nccs3)cs2)c1 | 57.6% | – | – | – | – | – |
| COc1cc(Nc2nc(-c3nc(-c4ccccc4Cl)cs3)cs2)cc(OC)c1 | – | 8.07 nM | 323 nM | 1250 nM | 40 | 155 |
| Clc1cccc(Nc2nc(-c3nccs3)cs2)c1 | 90% | 7.6 nM | 262 nM | – | – | – |
| Fc1ccccc1Nc1nc(-c2nccs2)cs1 | 89.6% | – | – | – | – | – |
| CCc1sc(-c2csc(Nc3cc(Cl)cc(Cl)c3)n2)nc1-c1ccccc1 | – | 29.5 nM | 99.9 nM | 227 nM | 3.39 | 7.69 |

| SMILES | inhibition at 0.5 h, 0.1 µM (CYP1B1) | IC50 (Cytochrome P450 1B1) | IC50 (Cytochrome P450 1A1) | IC50 (Cytochrome P450 1A2) | selectivity ratio (CYP1A1 versus CYP1B1) | selectivity ratio (CYP1A2 versus CYP1B1) |
| --- | --- | --- | --- | --- | --- | --- |
| Fc1ccc(Nc2nc(-c3nccs3)cs2)cc1 | 92% | 35.7 nM | 957 nM | – | – | – |
| Clc1ccc(Nc2nc(-c3nccs3)cs2)nc1 | 78.8% | – | – | – | – | – |
| C#CCOc1ccccc1-c1csc(-c2csc(Nc3cccc(F)c3)n2)n1 | – | 22.2 nM | 125 nM | 1040 nM | 5.64 | 46.8 |
| Cc1sc(-c2csc(Nc3cc(Cl)cc(Cl)c3)n2)nc1-c1ccccc1 | – | 23.3 nM | 316 nM | 313 nM | 13.5 | 13.4 |
| CCc1sc(-c2csc(Nc3cccc(F)c3)n2)nc1-c1ccccc1 | – | 246 nM | 246 nM | – | – | – |
| COc1cccc(-c2csc(-c3csc(Nc4ccc(N5CCOCC5)cc4)n3)n2)c1 | – | 26.8 nM | 315 nM | 4670 nM | 11.7 | 174 |
| COc1ccc(Nc2nc(-c3nccs3)cs2)cc1OC | 78.9% | – | – | – | – | – |
| Clc1cc(Cl)cc(Nc2nc(-c3nc(-c4ccncc4)cs3)cs2)c1 | – | 14.4 nM | 1020 nM | 2340 nM | 70.4 | 162 |
| c1csc(-c2csc(Nc3ccc(N4CCNCC4)cc3)n2)n1 | 43.7% | – | – | – | – | – |
| Nc1ccc(Nc2nc(-c3nccs3)cs2)cc1 | 54% | – | – | – | – | – |
| Fc1ccccc1-c1csc(-c2csc(Nc3ccc(N4CCOCC4)cc3)n2)n1 | – | 12.9 nM | 110 nM | 5060 nM | 8.48 | 392 |
| COc1ccccc1Nc1nc(-c2nccs2)cs1 | 60% | – | – | – | – | – |
| Fc1cccc(Nc2nc(-c3nc(-c4ccc(Cl)cc4F)cs3)cs2)c1 | – | > 1000 nM | > 10000 nM | > 10000 nM | – | – |
| c1ccc(-c2csc(-c3csc(Nc4ccc(N5CCOCC5)cc4)n3)n2)nc1 | – | 12.9 nM | 47.9 nM | 11700 nM | 3.71 | 905 |
| Fc1cccc(Nc2nc(-c3nc(-c4ccccc4)c(-c4ccccc4)s3)cs2)c1 | – | 518 nM | 6780 nM | – | – | – |
| Clc1cc(Cl)cc(Nc2nc(-c3nc(-c4ccccc4)cs3)cs2)c1 | – | 20.1 nM | 896 nM | – | – | – |
| c1ccc2cc(Nc3nc(-c4nccs4)cs3)ccc2c1 | 80% | – | – | – | – | – |
| Fc1cccc(Nc2nc(-c3nc(-c4ccccn4)cs3)cs2)c1 | – | 11.8 nM | 314 nM | – | – | – |
| Fc1ccc(Nc2nc(-c3nccs3)cs2)nc1 | 75% | – | – | – | – | – |

| SMILES | inhibition at 0.5 h, 0.1 µM (CYP1B1) | IC50 (Cytochrome P450 1B1) | IC50 (Cytochrome P450 1A1) | IC50 (Cytochrome P450 1A2) | selectivity ratio (CYP1A1 versus CYP1B1) | selectivity ratio (CYP1A2 versus CYP1B1) |
| --- | --- | --- | --- | --- | --- | --- |
| Fc1cc(Cl)ccc1-c1csc(-c2csc(Nc3ccc(N4CCOCC4)cc3)n2)n1 | – | 534 nM | > 10000 nM | 995 nM | – | 1.86 |
| COc1cc(Nc2nc(-c3nc(-c4cccc(C#N)c4)cs3)cs2)cc(OC)c1 | – | 16.7 nM | 552 nM | – | – | – |
| COc1cccc(Nc2nc(-c3nccs3)cs2)c1 | 94.2% | – | 414 nM | – | 5.39 | – |
| COc1ccc(-c2csc(-c3csc(Nc4cc(OC)cc(OC)c4)n3)n2)cc1 | – | 51.3 nM | 823 nM | – | – | – |
| Fc1ccc(Nc2nc(-c3nccs3)cs2)cc1Cl | 94.1% | – | – | – | – | – |
| COc1cc(Nc2nc(-c3nc(-c4cccc(Cl)c4)cs3)cs2)cc(OC)c1 | – | 15.9 nM | 6520 nM | – | – | – |
| c1ccc(Nc2nc(-c3nccs3)cs2)cc1 | 56.4% | – | – | – | – | – |
| COc1cc(Nc2nc(-c3nc(-c4cccc(F)c4)cs3)cs2)cc(OC)c1 | – | 11.1 nM | 820 nM | – | – | – |
| COc1cc(Nc2nc(-c3nc(-c4ccccc4)cs3)cs2)cc(OC)c1 | – | 3.92 nM | 222 nM | – | – | – |
| Clc1ccccc1Nc1nc(-c2nccs2)cs1 | 72.8% | – | – | – | – | – |
| N#Cc1ccc(Nc2nc(-c3nccs3)cs2)cc1 | 81.5% | – | – | – | – | – |
| CC(=O)Nc1cccc(Nc2nc(-c3nccs3)cs2)c1 | 93.7% | – | – | – | – | – |
| c1csc(-c2csc(Nc3ccc(-n4cncn4)cc3)n2)n1 | 82% | – | – | – | – | – |
| CN1CCN(c2ccc(Nc3nc(-c4nccs4)cs3)cc2)CC1 | 51% | – | – | – | – | – |
| Clc1cc(Cl)cc(Nc2nc(-c3nc(-c4ccccc4Cl)cs3)cs2)c1 | – | 6.64 nM | 1120 nM | – | – | – |
| c1cc(Nc2nc(-c3nccs3)cs2)c2cccnc2c1 | 36% | – | – | – | – | – |
| COc1cc(Nc2nc(-c3nc(-c4ccc(Cl)cc4F)cs3)cs2)cc(OC)c1 | – | 12.7 nM | > 10000 nM | > 10000 nM | – | – |
| Fc1cccc(Nc2nc(-c3nc(-c4cccnc4)cs3)cs2)c1 | – | 0.551 nM | 30.3 nM | – | – | – |
